According to patent US20230355678A1, “METHODS FOR IMPROVING T CELL EFFICACY” (IMMATICS US, INC., priority 2022, published 2023):
Entries after “also recorded” stand apart in the source; their conditions may differ. Like-named read-outs stand apart in the source and are kept apart here.

Columns and labels:
[1] = test system: transduced T cells; assay: Fold expansion and manufacturing metrics of T cell products; format: cell-based; set-up: fold expansion: unit of the concentration uncertain; conditions: for fold expansion of T cell products: vs untreated control; for fold expansion: FIG. 2B
Experimental: (§1) (DMSO low concentration=low volume=0.00001%; vehicle control for Panobinostat at low concentration (1 nM); DMSO high concentration=high volume=1.5%; vehicle control for valproic acid at high concentration (1.5 mM); all except Na butyrate (water) were dissolved in DMSO)
(§2) On Day 1, the activated CD4/CD8-selected cells were transduced with Lentiviral vectors expressing a target-specific exogenous TCR. On Day 2, the culture media were removed and the transduced cells were fed with fresh media in the absence of Panobinostat, SAHA+IL-21, and AKTi VIII and in the presence of cytokines, for cell expansion. On Day 7-Day 10, cells were harvested and cryopreserved for harvest metrics, phenotypic analysis, and functional studies including Incucyte tumor serial killing assay, cytokine production, and exhaustion analysis. To test the effects of TKi, e.g., dasatinib, on T cell products, dasatinib was added on Day 2 (5 nM) and Day 5 (10 nM) during feeding and expansion.
(§3) On Day 0, thawed and rested CD4/CD8-selected cells were activated in the presence of anti-CD3/anti-CD28 antibodies. On Day 1, the activated CD4/CD8-selected cells were transduced with Lentiviral vectors expressing a target-specific exogenous TCR and exogenous CD8 molecules. On Day 2, the culture media were removed and the transduced cells were fed with fresh media containing cytokines for cell expansion. Dasatinib was added on Day 2 or on Day 5. On Day 7-Day 10, cells were harvested and cryopreserved for harvest metrics, phenotypic analysis, and functional studies including Incucyte tumor serial killing assay, cytokine production, and exhaustion analysis.

[2] = test system: UACC257; assay: Tumor cell killing by T cell products (Incucyte tumor serial killing assay); format: cell-based
Source text: as §2
T cell products prepared by activating T cells obtained from three patients (n=3) in the presence of Panobinostat, SAHA+IL-21, or AKTi VIII were compared with regards to tumor killing activity when contacting target cells, e.g., UACC257, which express a report gene encoding red florescent protein (RFP), with E:T=3:1. TCR-positive cells were normalized.
(n=3 healthy donors; TCR normalized T cells:UACC257-iRFP=3:1).

[3] = test system: transduced T cells; assay: Response to Ag exposure (cytokine expression, exhaustion); format: cell-based; conditions: Acceptable range ≥Control; Table 5 summary grade
Source text: as §2

[4] = test system: transduced T cells; assay: Memory T cell phenotype by flow cytometry; format: cell-based; conditions: for Ranking of T cell products from the most Tnaive and the least TemRA to the least Tnaive and the most TemRA: comparative study, FIG. 25A-B; for CD28+CD62L+ cells (Tcm-like cells): FIG. 5; for % Tnaïve cells / TemRA cells: vs other treatments and control (no HDACi), FIG. 4
Experimental: Phenotypes of transduced T cells treated with different HDACi were determined by flow cytometry gated on CD3+CD8+ TCR+ cells. […] No major difference in immune-checkpoint-inhibitor (ICI) marker expression was observed.
Using Panobinostat as example, phenotypes of T cell products prepared by Panobinostat treatment on Day 0 (activation), Day 1 (transduction), or Day 2 (feeding) were determined.
as §2, §3

[5] = test system: transduced T cells; assay: Exhaustion / inhibitory receptor (ICI) marker expression of T cell products; format: cell-based
Experimental: The sustained expression of multiple inhibitory receptors may be the hallmark of exhausted T cells. Common to both CD4+ and CD8+ exhausted T cells may be the surface expression of multiple inhibitory receptors, e.g., 2B4, 4-1BB, CD39, CD69, LAG3, PD-1, TIGIT, and TIM3. Expression of these inhibitory receptors in T cell products prepared by Panobinostat treatment at different time was determined. […] Panobinostat treatment on Day 0 increased % PD-1+ cells in T cell products as compared with other treatments and control.
CD39 may be considered as a marker for exhausted T cells, e.g., CD8+ T cells, in cancer. CD69 is a membrane-bound, type II C-lectin receptor and may be considered as an early marker of lymphocyte activation due to its rapid appearance on the surface of the plasma membrane after stimulation. […] Dasatinib may have little effect on % of terminally differentiated CD39-positive state (CD39+CD69+) and % of CD69+ state in T cell products.
Common to both CD4+ and CD8+ exhausted T cells may be the surface expression of multiple inhibitory receptors including 2B4, 4-1BB, CD39, CD69, LAG3, PD-1, TIGIT, and TIM-3.

[6] = test system: transduced T cells; assay: Transduction efficiency by flow cytometry gated on CD3+CD8+ TCR+ cells; format: cell-based; set-up: % CD8+ T cells / % CD8+ TCR+ cells (transduction efficiency): unit of the concentration uncertain; conditions: for % CD8+ TCR+ T cells (transduction efficiency) / total number of T cell products with CD8+ TCR+ T cells: vs untreated control; for % CD8+ T cells / % CD8+ TCR+ cells (transduction efficiency): FIG. 3
Experimental: Transduction efficiency of transduced T cells treated with different HDACi were determined by flow cytometry gated on CD3+CD8+ TCR+ cells.
as §2, §3

[7] = test system: transduced T cells; assay: Viability of T cell products; set-up: viability of transduced T cells: dose or concentration left out as unconfirmed; conditions: for viability of transduced T cells: Day 7, vs controls (no HDACi and DMSO), FIG. 2A
Experimental: as §1

[8] = dasatinib (5 nM) on Day 2 compared with dasatinib (10 nM) on Day 5, FIG. 25A
[9] = dasatinib (10 nM) on Day 2 or Day 5, FIG. 23B
[10] = dasatinib added Day 2 (5 nM) and Day 5 (10 nM) during feeding and expansion, vs untreated control, FIG. 25A
[11] = dasatinib (10 nM) on Day 2 or Day 5, vs untreated control, FIG. 23C

Molecule: 3-[1-[[4-(7-phenyl-3H-imidazo[4, 5g]quinoxalin-6-yl)phenyl]methyl]piperidin-4-yl]-1H-benzimidazol-2-one [AKTi VIII]
- fold expansion of T cell products ([1]; AKTi VIII 250 nM added Day 0 during activation, FIG. 19A, 24A): little effect
- manufacturing metrics and phenotype ([1]; AKTi-treated cells compared with Panobinostat and SAHA+IL-21 treated cells): relatively better
- tumor killing activity ([2]; AKTi VIII 250 nM added Day 0 during activation, UACC257-RFP, E:T=3:1, n=3 patients, vs Panobinostat and controls, FIG. 21A): better tumor killing activity
- tumor killing activity ([2]; AKTi VIII 250 nM added Day 0 during activation, UACC257-RFP, E:T=3:1, n=3 patients, vs Panobinostat and controls, FIG. 21A, listed as AKTi): better tumor-killing activity
- Response to Ag exposure (cytokine expression, exhaustion) [3]: +/=
- % of Tcm (CD45RA−CCR7+), Teff (CD45−CCD7−), and TemRA (CD45RA+CCR7-) ([4]; AKTi VIII 250 nM added Day 0 during activation, FIG. 20A): little effect
- total number of Tnaive (CD45RA+CCR7+) in T cell products ([4]; AKTi VIII 250 nM added Day 0 during activation, vs Panobinostat, SAHA+IL-21 and untreated control, FIG. 20B, 25B): best total number; also recorded: increased
- % Tnaive (CD45RA+CCR7+) in T cell products ([4]; AKTi VIII 250 nM added Day 0 during activation, vs untreated control, FIG. 20A, 25A): increased
- expression of Tnaive and Tcm markers (CD27, CD28, CD62L) ([4]; AKTi VIII 250 nM added Day 0 during activation, vs untreated control, FIG. 20C): little effect
- % TemRA in T cell products ([4]; AKTi VIII 250 nM added Day 0 during activation, vs untreated control, FIG. 25A): decreased
- Memory Phenotype ([4]; Acceptable range: Higher % of Tscm, Tcm, lower % of TemRA, improvements in other memory markers (CD62L, CD28, CD27), Table 5 summary grade): +/=
- Ranking of T cell products from the most Tnaive and the least TemRA to the least Tnaive and the most TemRA [4]: dasatinib (5 nM) on Day 2 >dasatinib (10 nM) on Day 5 >AKTi VIII >Panobinostat
- Exhaustion phenotype ([5]; Acceptable range ≤% of exhausted cells to control, Table 5 summary grade): =
- % CD8+ TCR+ T cells (transduction efficiency) ([6]; AKTi VIII 250 nM added Day 0 during activation, FIG. 19B, 24B): higher

Molecule: O=C(CCCCCCNC(=O)c1cnc(N(c2ccccc2)c2ccccc2Cl)nc1)NO [ACY-241]
- CD28+CD62L+ cells (Tcm-like cells) ([4]; 100 nM): more CD28+CD62L+ cells; also recorded: increased
- % Tnaïve cells ([4]; 100 nM): most % Tnaïve cells; also recorded: most naïve cells
- TemRA cells ([4]; 100 nM): least TemRA cells

Molecule: Cc1nc(Nc2ncc(C(=O)Nc3c(C)cccc3Cl)s2)cc(N2CCN(CCO)CC2)n1 [Dasatinib, dasatinib]
- Manufacturing metrics (expansion, viability, yield) ([1]; Acceptable range ≥Control, Table 5 summary grade): =
- fold expansion of T cell products ([1]; dasatinib added Day 2 (5 nM) and Day 5 (10 nM) during feeding and expansion, FIG. 24A): little effect
- fold expansion of T cell products ([1]; dasatinib on Day 2 (10 nM or 100 nM) or Day 5 (10 nM or 100 nM), FIG. 22A): little effect
- tumor killing activity ([2]; expansion in the presence of dasatinib, TCR normalized T cells:UACC257-RFP=3:1, n=3 healthy donors, vs Panobinostat or AKTi VIII and controls, FIG. 28A, 29A-C): significantly better tumor killing activity
- phenotype ([4]; Dasatinib-treated cells vs untreated cells): Better Phenotype
- Ranking of T cell products from the most Tnaive and the least TemRA to the least Tnaive and the most TemRA [4]: dasatinib (5 nM) on Day 2 >dasatinib (10 nM) on Day 5 >AKTi VIII >Panobinostat
- % TemRA in T cell products [4, 8]: less
- % Tnaive in T cell products [4, 8]: more
- expression of CD27 ([4]; dasatinib (10 nM) on Day 2 or Day 5, FIG. 23A): Little effect
- % Tnaive in T cell products [4, 9]: less
- % of differentiated TemRA [4, 9]: less
- % CD62L+ and % CD28+CD62L+ cells in T cell products ([4]; dasatinib (10 nM) on Day 2 or Day 5, vs Panobinostat, SAHA+IL-21, AKTi VIII or untreated control, FIG. 26A): increased
- MFI of CD27 and CD62L in T cell products ([4]; dasatinib (10 nM) on Day 2 or Day 5, vs Panobinostat, SAHA+IL-21, AKTi VIII or untreated control, FIG. 26B): increased
- expression of Tnaive and Tcm markers CD28 and CD62L ([4]; dasatinib (10 nM) on Day 2 or Day 5, vs untreated control, FIG. 23A): increased
- % TemRA in T cell products [4, 10]: decreased
- % Tnaive in T cell products [4, 10]: increased
- number of Tnaive in T cell products ([4]; dasatinib added Day 2 (5 nM) and Day 5 (10 nM) during feeding and expansion, vs untreated control, FIG. 25B): increased
- % 2B4+, % Cd69+, and % TIM-3+ cells in T cell products ([5]; dasatinib (10 nM) on Day 2 or Day 5, vs Panobinostat or AKTi VIII or untreated control, FIG. 27A): decreased
- MFI of 4-1BB and TIM-3 in T cell products ([5]; dasatinib (10 nM) on Day 2 or Day 5, vs Panobinostat or AKTi VIII or untreated control, FIG. 27B): decreased
- % of T cell products with differentiated CD39+ state (CD39+) [5, 11]: slightly higher
- % of T cell products with memory-progenitor CD39− negative stem-like phenotype (CD39−CD69−) [5, 11]: slightly less
- % of terminally differentiated CD39-positive state (CD39+CD69+) and % of CD69+ state ([5]; dasatinib, FIG. 23C): little effect
- % CD8+ TCR+ T cells (transduction efficiency) ([6]; dasatinib added Day 2 (5 nM) and Day 5 (10 nM) during feeding and expansion, FIG. 24B): higher
- total number of T cell products with CD8+ TCR+ T cells ([6]; dasatinib added Day 2 (5 nM) and Day 5 (10 nM) during feeding and expansion, FIG. 24C): little effect
- % CD8+ TCR+ T cells (transduction efficiency) ([6]; dasatinib on Day 2 (10 nM or 100 nM) or Day 5 (10 nM or 100 nM), FIG. 22B): higher
- total number of T cell products with CD8+ TCR+ T cells ([6]; expansion in the presence of dasatinib, FIG. 22C): little effect

Molecule: Nc1ccccc1NC(=O)c1ccc(CNC(=O)OCc2cccnc2)cc1 [Entinostat, entinostat]
- toxicity to T cells [7]: highly toxic
- viability of transduced T cells [7]: reduced T cell viability
- fold expansion ([1]; 2 (unit uncertain)): reduced fold expansion
- % CD8+ T cells ([6]; 2 (unit uncertain)): reduced % CD8+ T cells
- % CD8+ TCR+ cells (transduction efficiency) ([6]; 2 (unit uncertain)): reduced % CD8+ TCR+ cells

Molecule: O=C(CCCCCCC(=O)Nc1ccccc1)NO [SAHA, suberanilohydroxamic acid]
- CD28+CD62L+ cells (Tcm-like cells) ([4]; 50 nM): more CD28+CD62L+ cells; also recorded: increased
- % Tnaïve cells ([4]; 50 nM): most % Tnaïve cells; also recorded: most naïve cells
- TemRA cells ([4]; 50 nM): least TemRA cells

Molecule: CCCC(=O)[O-].[Na+] [Sodium butyrate]
- viability of transduced T cells [7]: reduced T cell viability
- toxicity to T cells ([7]; summary of Example 2): highly toxic
- fold expansion ([1]; 2 (unit uncertain)): reduced fold expansion
- % CD8+ T cells ([6]; 2 (unit uncertain)): reduced % CD8+ T cells
- % CD8+ TCR+ cells (transduction efficiency) ([6]; 2 (unit uncertain)): reduced % CD8+ TCR+ cells

Molecule: CCCC(CCC)C(=O)O [valproic acid]
- toxicity to T cells [7]: highly toxic
- fold expansion ([1]; 1.5 (unit uncertain)): reduced fold expansion
- % CD8+ T cells ([6]; 1.5 (unit uncertain)): reduced % CD8+ T cells
